Measurements published in patent US12059498B2, “Preparation and storage of liposomal RNA formulations suitable for therapy” (BioNTech SE, priority 2017, dated 2024).
“Also recorded” adds a separate entry of the source.

Assay: Freezing of RNA lipoplexes with cryoprotectants, particle size
Conditions: RNA lipoplexes frozen with increasing concentration of the compound
Description: Methods: Different compounds representative for monosaccharides (glucose and sorbitol), disaccharides (sucrose and trehalose), amino acids (arginine, prolin), triols (glycerin) as well as cryoprotectant systems containing mixtures of different sugars (mannitol and sucrose) were investigated in order to identify suited cryoprotectants (FIGS. 25 and 26). Therefore RNA lipoplexes were frozen in the presence of increasing concentration of these compounds. In order to identify minimum content of cryoprotectant at a certain concentration of NaCl, RNA lipoplexes were frozen in the presence of increasing amounts of sucrose or trehalose as representative cryoprotectants (Table 7). The samples were initially frozen a single time in order to determine the concentration range of cryoprotectant to be investigated in detail. In a third experiment, the efficacy of stabilization of the particle size was challenged by freezing of the RNA lipoplexes up to 10 times in the presence of the cryoprotectant trehalose (Table 8).

SMILES	stabilization of RNA lipoplexes during freezing (as cryoprotectant)
OCC(O)CO [Glycerin]	can be used as cryoprotectants
N=C(N)NCCC[C@H](N)C(=O)O [arginine]	clearly destabilizes the RNA lipoplexes
OC[C@@H](O)[C@@H](O)[C@H](O)[C@@H](O)CO [sorbitol]	can be used as cryoprotectants; also recorded: lower
